Literature values as cited in patent US20140172387A1, “PREDICTION OF MOLECULAR BIOACTIVATION” (Genentech, Inc., priority 2012, published 2014).
Converted amounts (≈) assume the structure as drawn. Like-named read-outs stand apart in the source and are kept apart here.

Legend:
[1] = not given; remark: listed apart in the source
[2] = biological target: insect nicotinic acetylcholine receptor (nAChR); conditions: for IC50: insect nAChR
[3] = biological target: α4β2 mammalian nAChR (Homo sapiens, UniProt P17787+P43681)
Chain of α4β2 mammalian nAChR (P43681 29-627 limits assumed): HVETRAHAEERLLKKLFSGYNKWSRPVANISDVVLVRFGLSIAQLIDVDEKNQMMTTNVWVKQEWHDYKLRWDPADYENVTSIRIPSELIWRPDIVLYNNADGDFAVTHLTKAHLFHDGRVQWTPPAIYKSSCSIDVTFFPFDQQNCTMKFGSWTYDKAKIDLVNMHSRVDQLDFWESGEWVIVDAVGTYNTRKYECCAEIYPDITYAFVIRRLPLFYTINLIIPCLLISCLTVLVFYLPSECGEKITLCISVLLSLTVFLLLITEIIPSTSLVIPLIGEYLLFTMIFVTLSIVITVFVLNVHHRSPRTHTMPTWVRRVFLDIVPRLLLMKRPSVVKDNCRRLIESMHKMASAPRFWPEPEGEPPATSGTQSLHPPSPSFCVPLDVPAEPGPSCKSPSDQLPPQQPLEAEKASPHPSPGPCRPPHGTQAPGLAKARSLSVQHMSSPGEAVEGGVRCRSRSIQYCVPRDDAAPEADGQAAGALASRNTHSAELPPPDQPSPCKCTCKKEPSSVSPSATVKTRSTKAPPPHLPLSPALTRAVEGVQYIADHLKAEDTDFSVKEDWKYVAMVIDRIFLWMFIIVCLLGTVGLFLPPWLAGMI
Chain of α4β2 mammalian nAChR (P17787 26-502): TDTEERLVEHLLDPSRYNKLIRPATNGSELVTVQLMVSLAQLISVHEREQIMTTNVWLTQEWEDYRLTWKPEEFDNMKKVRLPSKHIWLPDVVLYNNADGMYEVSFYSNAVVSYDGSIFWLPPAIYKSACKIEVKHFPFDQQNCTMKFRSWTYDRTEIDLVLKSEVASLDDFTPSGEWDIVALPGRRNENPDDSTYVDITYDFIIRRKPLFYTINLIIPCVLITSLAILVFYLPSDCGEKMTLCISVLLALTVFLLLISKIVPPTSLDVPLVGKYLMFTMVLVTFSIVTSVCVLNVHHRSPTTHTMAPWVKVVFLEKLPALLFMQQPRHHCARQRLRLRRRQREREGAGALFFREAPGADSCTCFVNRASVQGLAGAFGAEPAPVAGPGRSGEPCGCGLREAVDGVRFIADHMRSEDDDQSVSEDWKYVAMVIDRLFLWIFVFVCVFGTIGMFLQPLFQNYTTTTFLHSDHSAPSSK

For `CCc1nn(CCCN2CCN(c3cccc(Cl)c3)CC2)c(=O)n1CCOc1ccccc1` [Nefazodone (1), 1-(3-[4-(3-chlorophenyl)piperazin-1-yl]propyl)-3-ethyl-4-(2-phenoxyethyl)-1H-1,2,4-triazol-5(4H)-one], the “water solubility (experimental data)” value (at pH 7) is given as 6.41 µg/mL (≈ 0.0136 mM).

In the case of `CC(=O)Nc1ccc(O)cc1` [acetaminophen (1), N-acetyl-para-aminophenol], the “water solubility (experimental data)” value (at 20° C) is listed as 12780 µg/mL (≈ 84.5 mM) and the “excreted unchanged in urine” value [1] is listed as “up to 9 % of therapeutic dose”.

For `O=[N+]([O-])NC1=NCCN1Cc1ccc(Cl)nc1` [imidacloprid (1), N-[1-[(6-Chloro-3-pyridyl)methyl]-4,5-dihydroimidazol-2-yl]nitramide], the IC50 [2] is given as 0.0046 µM, the “selectivity for the insect vs. the α4β2 mammalian nAChR” value ([2]; insect vs. mammalian α4β2 nAChR) is given as > 500 fold and the IC50 [3] is given as 2.6 µM.

In the case of `N=C1NCCN1Cc1ccc(Cl)nc1` [imidacloprid-NH (6), imidacloprid-NH], the IC50 [2] is given as 1.53 µM and the IC50 ([3]; read-out: IC50) is given as 0.0082 µM.

In the case of `C=CCl` [vinyl chloride (1), chloroethene], the “water solubility (experimental data)” value is listed as 2700 µg/mL.
